This is an account of results in patent US20230330067A1, “NOVEL THIOHYDANTOIN DERIVATIVES AND USES THEREOF” (CELROS BIOTECH, priority 2020, published 2023).

The target of one assay is T1, human Nox2 (Homo sapiens, UniProt P04839).
T1 construct: made in house; host or cells: transgenic Drosophila (UAS-hNox2/UAS-dDuox-RNAi; Da-GAL4/+), membranes from fly homogenate
T1 sequence (P04839 2-570 limits assumed): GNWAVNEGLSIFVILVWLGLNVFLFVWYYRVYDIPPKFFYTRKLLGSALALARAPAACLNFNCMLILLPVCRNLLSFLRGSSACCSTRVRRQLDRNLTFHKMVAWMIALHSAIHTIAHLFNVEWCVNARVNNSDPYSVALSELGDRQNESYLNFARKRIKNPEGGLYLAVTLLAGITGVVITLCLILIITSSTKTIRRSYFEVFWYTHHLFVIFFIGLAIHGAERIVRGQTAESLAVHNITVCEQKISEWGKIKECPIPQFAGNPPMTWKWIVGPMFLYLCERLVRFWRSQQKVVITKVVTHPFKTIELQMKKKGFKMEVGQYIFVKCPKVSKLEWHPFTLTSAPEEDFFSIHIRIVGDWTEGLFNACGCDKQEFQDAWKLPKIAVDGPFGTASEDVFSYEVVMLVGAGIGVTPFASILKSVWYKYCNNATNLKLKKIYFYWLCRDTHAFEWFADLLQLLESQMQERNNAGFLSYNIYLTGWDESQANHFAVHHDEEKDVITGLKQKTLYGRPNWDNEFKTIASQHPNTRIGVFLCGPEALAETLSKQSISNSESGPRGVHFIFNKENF
As to the kind of experiment: Lucigenin chemiluminescence assay, human Nox2. The assay is classed as biochemical. To be noted: Drosophila membranes expressing hNox2; average of three assays. From the text: (§1) Human Nox isozymes were provided from transgenic flies expressing human Nox isozymes under the daughterless (Da)-GAL4 promoter. The genotype of each fly line is shown below. • 1) Human Nox1: UAS-hNox1/UAS-dDuox-RNAi; Da-GAL4/+ • 2) Human Nox2: UAS-hNox2/UAS-dDuox-RNAi; Da-GAL4/+ • 3) Human Nox4: UAS-hNox4/UAS-dDuox-RNAi; Da-GAL4/+
(§2) Transgenic flies were homogenized with PBS containing protease inhibitors (Aprotinin and Leupeptin) to obtain Drosophila membranes of each Nox isozyme. The membranes were incubated with compounds (100 μM, 10 μM, 1 μM, 0.1 μM, 0.01 μM, 0.001 μM, and 0 μM) for 10 min on a shaker. After that, a mixture of 500 μM NADPH (beta-nicotinamide adenine dinucleotide 2′-phosphate reduced tetrasodium salt hydrate; Sigma-Aldrich) and 400 μM lucigenin (N,N′-dimethyl-9,9′-biacridinium dinitrate; Sigma-Aldrich) in 1X HEPES (4-(2-hydroxyethyl)-1-piperazineethanesulfonic acid) buffer was added to the membrane. Lucigenin chemiluminescence was detected at 1 minute intervals for 10 min using a multimode microplate reader (SpectraMax iD3, Molecular Devices). IC50 values were calculated with Graph-Pad Prism 5 (GraphPad Software).
(§3) Lucigenin chemiluminescence assays were performed with Drosophila membranes expressing hNox1, hNox2 and hNox4. The assay was repeated three times and the average of the IC50 values was determined.

Another assay deals with T2, human Nox4 (Homo sapiens, UniProt Q9NPH5).
T2 construct: made in house; host or cells: transgenic Drosophila (UAS-hNox4/UAS-dDuox-RNAi; Da-GAL4/+), membranes from fly homogenate
T2 sequence (Q9NPH5 1-578): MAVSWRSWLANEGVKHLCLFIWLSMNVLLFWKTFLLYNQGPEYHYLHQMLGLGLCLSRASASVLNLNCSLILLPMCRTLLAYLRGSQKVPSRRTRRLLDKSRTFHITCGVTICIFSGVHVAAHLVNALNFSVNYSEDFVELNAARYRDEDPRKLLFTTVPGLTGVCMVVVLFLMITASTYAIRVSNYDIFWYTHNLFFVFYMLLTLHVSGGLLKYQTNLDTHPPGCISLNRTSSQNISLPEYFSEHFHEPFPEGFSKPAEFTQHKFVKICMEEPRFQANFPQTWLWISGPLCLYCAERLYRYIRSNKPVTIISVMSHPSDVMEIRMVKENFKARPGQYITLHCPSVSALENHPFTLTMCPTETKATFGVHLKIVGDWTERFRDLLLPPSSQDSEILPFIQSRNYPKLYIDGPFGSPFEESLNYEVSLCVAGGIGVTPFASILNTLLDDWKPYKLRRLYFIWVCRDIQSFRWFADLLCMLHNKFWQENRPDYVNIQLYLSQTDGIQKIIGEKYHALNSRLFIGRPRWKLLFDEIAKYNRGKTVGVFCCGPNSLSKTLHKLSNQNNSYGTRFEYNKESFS
As to the kind of experiment: Lucigenin chemiluminescence assay, human Nox4. The format is biochemical. To be noted: Drosophila membranes expressing hNox4; average of three assays.
Description: as §1, §2, §3

A further assay addresses T3, human Nox1 (Homo sapiens, UniProt Q9Y5S8).
T3 construct: made in house; host or cells: transgenic Drosophila (UAS-hNox1/UAS-dDuox-RNAi; Da-GAL4/+), membranes from fly homogenate
T3 sequence (Q9Y5S8 1-564): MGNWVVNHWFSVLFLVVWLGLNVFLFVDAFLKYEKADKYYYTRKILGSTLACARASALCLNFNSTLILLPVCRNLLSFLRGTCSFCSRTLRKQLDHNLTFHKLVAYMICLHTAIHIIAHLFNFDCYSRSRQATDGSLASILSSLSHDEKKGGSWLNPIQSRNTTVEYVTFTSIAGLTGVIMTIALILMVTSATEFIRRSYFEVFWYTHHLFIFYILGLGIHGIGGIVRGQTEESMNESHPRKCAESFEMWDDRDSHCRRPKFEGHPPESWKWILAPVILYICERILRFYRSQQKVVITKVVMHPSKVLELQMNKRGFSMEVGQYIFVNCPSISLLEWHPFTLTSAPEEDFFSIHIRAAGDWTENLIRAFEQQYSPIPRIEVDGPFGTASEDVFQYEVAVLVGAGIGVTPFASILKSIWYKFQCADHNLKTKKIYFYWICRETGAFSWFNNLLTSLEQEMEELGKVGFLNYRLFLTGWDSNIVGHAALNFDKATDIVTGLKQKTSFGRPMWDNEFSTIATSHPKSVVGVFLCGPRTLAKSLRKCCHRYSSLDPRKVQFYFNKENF
As to the kind of experiment: Lucigenin chemiluminescence assay, human Nox1. The assay is classed as biochemical. The note with it: Drosophila membranes expressing hNox1; average of three assays.
Description: as §1, §2, §3

The next assay relates to BV2 cells. Put plainly: Nox inhibitory effect in BV2 cells (LPS-induced ROS generation, lucigenin chemiluminescence). The assay is classed as cell-based. The note with it: BV2 cells pre-treated 30 minutes, 0-10000 nM, then LPS 200 ng/ml; FIG. 3. The procedure: BV2 cells were washed with Hank's balanced salt solution (HBSS) and incubated in HBSS at 37° C. for 30 minutes. Then, the cells were treated with the compound (compound of Example 1 or compound of Example 2) at various concentrations (0 nM, 1 nM, 10 nM, 100 nM, 1000 nM, and 10000 nM). After 30 minutes, 200 ng/ml of lipopolysaccharide (LPS) and 200 μM of lucigenin were added to the cells. Lucigenin chemiluminescence was detected at 10 second intervals for 15 minutes using a luminometer (GLOMA, Promega).
Specifically, BV2 cells were pre-treated with Compound (A) of Example 1 or Compound (B) of Example 2 for 30 minutes and generation of reactive oxygen species (ROS) was detected after treatment with LPS (200 ng/ml). Data are expressed as mean ±SD (N=3).

Assay [1] relates to PFF-induced Parkinson's disease. Put plainly: PFF-induced Parkinson's disease mice. To be noted: 10 mg/kg intraperitoneal daily for 3 months. The format is in vivo, C57BL/6 mice. The procedure:
In order to develop preformed fibrils (PFF)-induced Parkinson's disease, 8-12 week old C57BL/6 mice were stereotaxically inoculated with 5 μg of PFF into the right dorsal striatum (AP+0.2 mm, […], DV 2.6 mm). Five months post single inoculation of PFF, animals were intraperitoneally injected with the compound of Example 2 at 10 mg/kg daily for 3 months. […] The maximum force of the mouse forelimb was recorded with a grip strength meter. The single inoculation of PFF impaired the grip strength of the forelimb.

Structures are written as SMILES.

For `CN1C(=S)N(CCc2ccccc2)C(=O)/C1=C\c1ccc(N(C)CCO)cc1` [Example 6, (E)-5-(4-((2-hydroxyethyl)(methyl)amino)benzylidene)-1-methyl-3-phenethyl-2-thioxoimidazolidin-4-one], the half-maximal inhibitory concentration (IC50) turned out to be 1.96 µM on human Nox2 and 1.8 µM against human Nox4.

On to `CN1C(=S)N(C2CCCCC2)C(=O)/C1=C\c1ccc(N(C)CCO)cc1O` [Example 4, (E)-3-cyclohexyl-5-(2-hydroxy-4-((2-hydroxyethyl)(methyl)amino)benzylidene)-1-methyl-2-thioxoimidazolidin-4-one], for which the half-inhibitory concentration (IC50) at human Nox2 was 0.52 µM; against human Nox4, 1.4 µM.

As for `COc1cc(N(C)CCO)ccc1/C=C1\C(=O)N(C2CCCCC2)C(=S)N1C` [Example 3, (E)-3-cyclohexyl-5-(4-((2-hydroxyethyl)(methyl)amino)-2-methoxybenzylidene)-1-methyl-2-thioxoimidazolidin-4-one], the figures for the IC50 on human Nox2 and on human Nox4 were 1.58 µM and 1.72 µM, respectively.

With `COc1cc(N(C)CCCO)ccc1/C=C1\C(=O)N(Cc2ccccc2)C(=S)N1C` [Example 8, (E)-3-benzyl-5-(4-((3-hydroxypropyl)(methyl)amino)-2-methoxybenzylidene)-1-methyl-2-thioxoimidazolidin-4-one], the IC50 was 1.9 µM against human Nox2 and 0.761 µM on human Nox4.

As for `CN1C(=S)N(Cc2ccccc2)C(=O)/C1=C\c1ccc(N(C)CCCO)cc1` [Example 5, (E)-3-benzyl-5-(4-((3-hydroxypropyl)(methyl)amino)benzylidene)-1-methyl-2-thioxoimidazolidin-4-one], the figures for the IC50 on human Nox2 and at human Nox4 were 1.35 µM and 0.907 µM, respectively.

On to `CN1C(=S)N(Cc2ccccc2)C(=O)/C1=C\c1ccc(N(C)CCO)cc1O` [Example 7, (E)-3-benzyl-5-(2-hydroxy-4-((2-hydroxyethyl)(methyl)amino)benzylidene)-1-methyl-2-thioxoimidazolidin-4-one], for which the IC50 is 0.773 µM on human Nox2 and 0.665 µM on human Nox4.

As for `CC(C)CN1C(=O)C(=Cc2ccc(N(C)CCO)cc2)N(C)C1=S` (mixture of isomers) [Example 2, 5-(4-((2-hydroxyethyl)(methyl)amino)benzylidene)-3-isobutyl-1-methyl-2-thioxoimidazolidin-4-one], the values for the IC50 against human Nox1, on human Nox2 and on human Nox4 were 1.49 µM, 1.84 µM and 1.72 µM, respectively. The “generation of reactive oxygen species (ROS)” value in the assay with BV2 cells is on record as “significant inhibition of ROS generation”. Besides, the “amount of α-synuclein in the hippocampus (HP CA1, HP CA3)” value in assay [1] (five months post PFF inoculation, FIG. 11) is given as “significantly decreased”. Moreover, the “astrocyte pathology (GFAP immuno-positive astrocytes) in the prefrontal cortex (Pfcx)” value in assay [1] (FIG. 12) is reported as “reduced GFAP immuno-positive astrocytes”. Besides, the “microglia pathology (Iba1 immunopositive activated microglia) in Pfcx and HP CA3” value in assay [1] (FIG. 13) is “reduced Ibal immunopositive activated microglia”. Further, the “neuromuscular function (forelimb grip strength)” value in assay [1] (FIG. 14) is “improved the grip strength”.
